According to US11007269B2, “P53 degradation inducing molecule and pharmaceutical composition” (Tokyo University of Science Foundation, priority 2016, dated 2021):

Target: T1, endogenous wild-type p53 protein (Mus musculus, UniProt P02340)
T1 construct: from tissue; host or cells: liver of C57BL/6J wild-type mice
Experiment: Western blot of wild-type p53 protein in liver of mice given the compound
Format: in vivo
Details: C57BL/6J mice, 48 hours after administration
Experimental: In Example 4, degradation (knockdown) of the endogenous wild-type p53 protein and MDM2 protein in mouse individuals in which TIBC-CANDDY_MLN had been administered was evaluated by Western blot analysis.
TIBC-CANDDY_MLN was dissolved in DMSO immediately before administration, and then dissolved in corn oil (Code No. 25606-55, Nacalai Tesque) so that the concentration of DMSO was 10 vol %, and then a dose of 50 mg/kg body weight or 100 mg/kg body weight was administered intraperitoneally to C57BL/6J wild-type mice (7 to 8 weeks old, male) (CLEA Japan, Inc.) (n=3). As a control, an injection carrier (corn oil containing 10 vol % DMSO) was used. The mice were kept under an environment of ad libitum access to food and water. […]
The frozen tissue (0.04 g) was triturated, and then 980 μL of 1×TKM tissue lysis buffer (50 mM triethanolamine (pH 7.8), 50 mM KCl, 5 mM MgCl2, 0.25 M sucrose, 1 mM PMSF, protein inhibitors cocktail-EDTA free (Code No. 03969-21, Nacalai Tesque), 1 mM DTT, Recombinant RNase inhibitor 5 μl/mL (40 U/μl, Cat No. 2313A, Lot No. K8402DA, TAKARA Bio)) was added, and dissolved by rotation for 15 minutes (1 rpm, 25° C.). […] The concentration of proteins in the tissue extract was quantified with a spectrophotometer with the tissue extract that had been diluted 20 times using DEPC-treated water. […]

T1 sequence (P02340 whole entry): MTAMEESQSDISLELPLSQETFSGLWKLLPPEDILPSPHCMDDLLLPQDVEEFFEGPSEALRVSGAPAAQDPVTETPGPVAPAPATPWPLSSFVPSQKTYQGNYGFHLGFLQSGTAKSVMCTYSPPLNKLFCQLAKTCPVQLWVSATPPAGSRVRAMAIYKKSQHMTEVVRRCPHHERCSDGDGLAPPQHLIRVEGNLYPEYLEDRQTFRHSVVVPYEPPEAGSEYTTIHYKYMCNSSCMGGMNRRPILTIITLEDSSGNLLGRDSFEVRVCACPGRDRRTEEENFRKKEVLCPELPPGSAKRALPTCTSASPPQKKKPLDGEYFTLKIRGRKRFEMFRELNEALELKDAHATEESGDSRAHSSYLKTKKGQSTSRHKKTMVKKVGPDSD

amount of endogenous wild-type p53 protein in the liver (50 mg/kg body weight intraperitoneally): reduced
amount of endogenous wild-type p53 protein in the liver (100 mg/kg body weight intraperitoneally): reduced
SMILES: CC(C)C[C@H](NC(=O)CNC(=O)c1cc(Cl)ccc1Cl)C(=O)NCCCCCCC(=O)Nc1ccc(C(=O)/C=C/c2ccc(I)cc2)cc1 [TIBC-CANDDY_MLN]
